Experimental data from patent US9113629B2, “4-amino-6-(4-substituted-phenyl)-picolinates and 6-amino-2-(4-substituted-phenyl)-pyrimidine-4-carboxylates and their use as herbicides” (DOW AGROSCIENCES LLC, priority 2013, dated 2015).
Read-outs that look alike come from different tables or passages of the source.

Experiments:
[1] = system: Key Broadleaf Weed and Crop Species; experiment: Post-emergent Test II herbicidal activity (Table 5); format: in vivo; conditions: post-emergence, 336 h, 14 days after application; for pest or weed control at 70 g/ha: application rate 70 g ai/ha
Summary of the method: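 Greenhouse-grown plants at first or second true leaf stage were sprayed post-emergence with compound in acetone/DMSO-based aqueous spray containing crop oil concentrate and surfactant, at 187 L/ha, highest rate plus ½× to 1/16× dilutions. After 14 d, injury was scored visually versus untreated plants, 0 (none) to 100% (complete kill).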

[2] = system: Key Grass and Sedge Weeds as well as Grass Crops; experiment: Post-emergent Test II herbicidal activity (Table 6); format: in vivo; conditions: post-emergence, 336 h; for pest or weed control at 140 g/ha: application rate 140 g ai/ha; for pest or weed control at 70 g/ha: application rate 70 g ai/ha
Protocol: Post-emergent Test II: Seeds or nutlets of the desired test plant species were planted in Sun Gro Metro-Mix® 360 planting mixture, which typically has a pH of 6.0 to 6.8 and an organic matter content of about 30 percent, in plastic pots with a surface area of 64 square centimeters. When required to ensure good germination and healthy plants, a fungicide treatment and/or other chemical or physical treatment was applied. The plants were grown for 7-21 d in a greenhouse with an approximate 15 h photoperiod which was maintained at about 23-29° C. during the day and 22-28° C. during the night. Nutrients and water were added on a regular basis and supplemental lighting was provided with overhead metal halide 1000-Watt lamps as necessary. The plants were employed for testing when they reached the first or second true leaf stage.
A weighed amount, determined by the highest rate to be tested, of each test compound was placed in a 25 mL glass vial and was dissolved in 4 mL of a 97:3 v/v mixture of acetone and DMSO to obtain concentrated stock solutions. […] The concentrated stock solutions obtained were diluted with 20 mL of an aqueous mixture containing acetone, water, isopropyl alcohol, DMSO. Atplus 411F crop oil concentrate, and Triton® X-155 surfactant in a 48.5:39:10:1.5:1.0:0.02 v/v ratio to obtain spray solutions containing the highest application rates. Additional application rates were obtained by serial dilution of 12 mL of the high rate solution into a solution containing 2 mL of 97:3 v/v mixture of acetone and DMSO and 10 mL of an aqueous mixture containing acetone, water, isopropyl alcohol, DMSO, Atplus 411F crop oil concentrate, and Triton X-155 surfactant in a 48.5:39:10:1.5:1.0:0.02 v/v ratio to obtain ½×, ¼×, ⅛× and 1/16× rates of the high rate. Compound requirements are based upon a 12 mL application volume at a rate of 187 liters per hectare (L/ha). Formulated compounds were applied to the plant material with an overhead Mandel track sprayer equipped with 8002E nozzles calibrated to deliver 187 L/ha over an application area of 0.503 square meters at a spray height of 18 inches (43 cm) above the average plant canopy height. Control plants were sprayed in the same manner with the solvent blank.
The treated plants and control plants were placed in a greenhouse as described above and watered by subirrigation to prevent wash-off of the test compounds. After 14 d, the condition of the test plants as compared with that of the untreated plants was determined visually and scored on a scale of 0 to 100 percent where 0 corresponds to no injury and 100 corresponds to complete kill.

[3] = ABUTH: velvetleaf (Abutilon theophrasti), 140 g ai/ha, post-emergent, read-out: Visual Growth Reduction (%) 14 Days After Application ABUTH
[4] = AMARE: redroot pigweed (Amaranthus retroflexus), 140 g ai/ha, post-emergent, read-out: Visual Growth Reduction (%) 14 Days After Application AMARE
[5] = BRSNN: oilseed-rape, canola (Brassica napus), 140 g ai/ha, post-emergent, read-out: Visual Growth Reduction (%) 14 Days After Application BRSNN
[6] = CHEAL: lambsquarters (Chenopodium album), 140 g ai/ha, post-emergent, read-out: Visual Growth Reduction (%) 14 Days After Application CHEAL
[7] = EPHHL: wild poinsettia (Euphorbia heterophylla), 140 g ai/ha, post-emergent, read-out: Visual Growth Reduction (%) 14 Days After Application EPHHL
[8] = HELAN: sunflower (Helianthus annuus), 140 g ai/ha, post-emergent, read-out: Visual Growth Reduction (%) 14 Days After Application HELAN
[9] = VIOTR: wild pansy (Viola tricolor), 140 g ai/ha, post-emergent, read-out: Visual Growth Reduction (%) 14 Days After Application VIOTR
[10] = Triticum aestivum, TRZSS (wheat), read-out: Visual Growth Reduction (%) 14 Days After Application, TRZSS
[11] = CYPES: yellow nutsedge (Cyperus esculentus), read-out: Visual Growth Reduction (%) 14 Days After Application, CYPES
[12] = DIGSA: crabgrass (Digitaria sanguinalis), read-out: Visual Growth Reduction (%) 14 Days After Application, DIGSA
[13] = ECHCG: barnyardgrass (Echinochloa crus-galli), read-out: Visual Growth Reduction (%) 14 Days After Application, ECHCG
[14] = ORYSA: rice (Oryza sativa), read-out: Visual Growth Reduction (%) 14 Days After Application, ORYSA
[15] = SETFA: giant foxtail (Setaria faberi), read-out: Visual Growth Reduction (%) 14 Days After Application, SETFA
[16] = SORVU: grain sorghum (Sorghum vulgare), read-out: Visual Growth Reduction (%) 14 Days After Application, SORVU
[17] = ZEAMX: maize, corn (Zea mays), read-out: Visual Growth Reduction (%) 14 Days After Application, ZEAMX

Row | melting point | Compound | pest or weed control at 140 g/ha [1, 3] | pest or weed control at 140 g/ha [1, 4] | pest or weed control at 140 g/ha [1, 5] | pest or weed control at 140 g/ha [1, 6] | pest or weed control at 140 g/ha [1, 7] | pest or weed control at 140 g/ha [1, 8] | pest or weed control at 140 g/ha [1, 9] | pest or weed control at 140 g/ha [2, 10] | pest or weed control at 140 g/ha [2, 11] | pest or weed control at 140 g/ha [2, 12] | pest or weed control at 140 g/ha [2, 13] | pest or weed control at 140 g/ha [2, 14] | pest or weed control at 140 g/ha [2, 15] | pest or weed control at 140 g/ha [2, 16] | pest or weed control at 140 g/ha [2, 17] | further results
1 | 171 to 172.1 °C | COc1c(N)nc(-c2ccc(OC(F)(F)F)cc2)nc1C(=O)O [Compound 102] | 0 to 29% | 0 to 29% | 0 to 29% | 0 to 29% | 95 to 100% | 60 to 74% | 0 to 29% | 0 to 29% | 0 to 29% | 0 to 29% | 0 to 29% | 0 to 29% | 0 to 29% | 0 to 29% | 0 to 29% | –
2 | 141.9 to 143.1 °C | Nc1c(Cl)c(C(=O)O)nc(-c2ccc(OC(F)(F)F)cc2)c1Cl [Compound 105] | 0 to 29% | 0 to 29% | 0 to 29% | 0 to 29% | 0 to 29% | 95 to 100% | 0 to 29% | 0 to 29% | 0 to 29% | 0 to 29% | 0 to 29% | 0 to 29% | 0 to 29% | 0 to 29% | 0 to 29% | –
3 | 185.1 to 186.9 °C | COC(=O)c1nc(-c2ccc(C#N)cc2)nc(N)c1OC [Compound 130] | 0 to 29% | 0 to 29% | 0 to 29% | 0 to 29% | 95 to 100% | 85 to 94% | 0 to 29% | 0 to 29% | 0 to 29% | 0 to 29% | 0 to 29% | 0 to 29% | 0 to 29% | 0 to 29% | 0 to 29% | –
4 | 149 to 151 °C | Nc1c(F)c(-c2ccc(OC(F)F)cc2F)nc(C(=O)O)c1Cl [Compound 140] | – | – | – | – | – | – | – | 0 to 29% | 0 to 29% | 0 to 29% | – | 0 to 29% | – | 0 to 29% | 0 to 29% | pest or weed control at 70 g/ha ([1]; ABUTH: velvetleaf (Abutilon theophrasti), read-out: Visual Growth Reduction (%) 14 Days After Application, ABUTH): 0 to 29%; pest or weed control at 140 g/ha ([1]; ABUTH: velvetleaf (Abutilon theophrasti), application rate 140 g ai/ha, read-out: Visual Growth Reduction (%) 14 Days After Application, ABUTH): 0 to 29%; pest or weed control at 70 g/ha ([1]; AMARE: redroot pigweed (Amaranthus retroflexus), read-out: Visual Growth Reduction (%) 14 Days After Application, AMARE): 0 to 29%; pest or weed control at 140 g/ha ([1]; AMARE: redroot pigweed (Amaranthus retroflexus), application rate 140 g ai/ha, read-out: Visual Growth Reduction (%) 14 Days After Application, AMARE): 0 to 29%; pest or weed control at 70 g/ha ([1]; BRSNN: oilseed-rape, canola (Brassica napus), read-out: Visual Growth Reduction (%) 14 Days After Application, BRSNN): 0 to 29%; pest or weed control at 140 g/ha ([1]; BRSNN: oilseed-rape, canola (Brassica napus), application rate 140 g ai/ha, read-out: Visual Growth Reduction (%) 14 Days After Application, BRSNN): 0 to 29%; pest or weed control at 70 g/ha ([1]; CHEAL: lambsquarters (Chenopodium album), read-out: Visual Growth Reduction (%) 14 Days After Application, CHEAL): 0 to 29%; pest or weed control at 140 g/ha ([1]; CHEAL: lambsquarters (Chenopodium album), application rate 140 g ai/ha, read-out: Visual Growth Reduction (%) 14 Days After Application, CHEAL): 0 to 29%; pest or weed control at 70 g/ha ([1]; EPHHL: wild poinsettia (Euphorbia heterophylla), read-out: Visual Growth Reduction (%) 14 Days After Application, EPHHL): 85 to 94%; pest or weed control at 140 g/ha ([1]; EPHHL: wild poinsettia (Euphorbia heterophylla), application rate 140 g ai/ha, read-out: Visual Growth Reduction (%) 14 Days After Application, EPHHL): 85 to 94%; pest or weed control at 70 g/ha ([1]; HELAN: sunflower (Helianthus annuus), read-out: Visual Growth Reduction (%) 14 Days After Application, HELAN): 60 to 74%; pest or weed control at 140 g/ha ([1]; HELAN: sunflower (Helianthus annuus), application rate 140 g ai/ha, read-out: Visual Growth Reduction (%) 14 Days After Application, HELAN): 75 to 84%; pest or weed control at 70 g/ha ([1]; VIOTR: wild pansy (Viola tricolor), read-out: Visual Growth Reduction (%) 14 Days After Application, VIOTR): 0 to 29%; pest or weed control at 140 g/ha ([1]; VIOTR: wild pansy (Viola tricolor), application rate 140 g ai/ha, read-out: Visual Growth Reduction (%) 14 Days After Application, VIOTR): 0 to 29%; pest or weed control at 70 g/ha [2, 10]: 0 to 29%; pest or weed control at 70 g/ha [2, 11]: 0 to 29%; pest or weed control at 70 g/ha [2, 12]: 0 to 29%; pest or weed control at 70 g/ha [2, 14]: 0 to 29%; pest or weed control at 70 g/ha [2, 16]: 0 to 29%; pest or weed control at 70 g/ha [2, 17]: 0 to 29%
